Source: US5273991A, “Imidazole-containing compositions and methods of use thereof analogs of distamycin” (Research Corporation Technologies, Inc., priority 1992, dated 1993)

What was measured:
Assay in all cases: NCI cytotoxicity screen (SRB)
Type in all cases: cell-based, human
A549/ATCC = settings: 48 h; Non-Small Cell Lung Cancer A549/ATCC
Protocol: (§1) Compounds 6, 7, 9 and 10 were tested for cytotoxic properties by the National Cancer Institute, Bethesda, Md. The anticancer drug screen utilized a panel of 60 human tumor cell lines organized into subpanels representing leukemia, melanoma, and cancers of the lung, colon, kidney, ovary and central nervous system and is described by Monks et al. (1991) Journal of the National Cancer Institute 83, 757, which is incorporated herein by reference.
(§2) Cell lines were inoculated onto microtiter plates and preincubated for 24-28 hours. 100 μL aliquots of each compound were added to the appropriate microtiter plate wells in each of five 10-fold dilutions starting from a maximum concentration of 10^-4 M in water or DMSO. Cultures were then incubated for an additional 48 hours. Cells were then fixed in situ, followed by staining with sulforhodamine B (SRB), which binds to basic amino acids of cellular macromolecules. The solubilized stain was measured spectrophotometrically to determine relative cell growth or viability in treated and untreated cells. The monoimidazole analogs of Compounds 6, 7, 9 and 10 and the formamido analog corresponding to Compounds 7 and 10 are devoid of activity against the panel of cancer cell lines in Table III.

SF-295 = settings: 48 h; CNS Cancer SF-295
Protocol: as §1, §2

COLO-205 = settings: 48 h; Colon Cancer COLO-205
Protocol: as §1, §2

DMS-273 = settings: 48 h; Small Cell Lung Cancer DMS-273
Protocol: as §1, §2

KM20L2 = settings: 48 h; Colon Cancer KM20L2
Protocol: as §1, §2

NCI-H522 = settings: 48 h; Non-Small Cell Lung Cancer NCI-H522
Protocol: as §1, §2

HCC-2998 = settings: 48 h; Colon Cancer HCC-2998
Protocol: as §1, §2

NCI-H460 = settings: 48 h; Non-Small Cell Lung Cancer NCI-H460
Protocol: as §1, §2

HCT-116 = settings: 48 h; Colon Cancer HCT-116
Protocol: as §1, §2

NCI-H23 = settings: 48 h; Non-Small Cell Lung Cancer NCI-H23
Protocol: as §1, §2

K-562 = settings: 48 h; Leukemia K-562
Protocol: as §1, §2

NCI-H322M = settings: 48 h; Non-Small Cell Lung Cancer NCI-H322M
Protocol: as §1, §2

HCT-15 = settings: 48 h; Colon Cancer HCT-15
Protocol: as §1, §2

SF-539 = settings: 48 h; CNS Cancer SF-539
Protocol: as §1, §2

HOP-62 = settings: 48 h; Non-Small Cell Lung Cancer HOP-62
Protocol: as §1, §2

Molt-4 = settings: 48 h; Leukemia Molt-4
Protocol: as §1, §2

KM12 = settings: 48 h; Colon Cancer KM12
Protocol: as §1, §2

MALME-3M = settings: 48 h; Melanoma MALME-3M
Protocol: as §1, §2

SW-620 = settings: 48 h; Colon Cancer SW-620
Protocol: as §1, §2

NCI-H226 = settings: 48 h; Non-Small Cell Lung Cancer NCI-H226
Protocol: as §1, §2

U251 = settings: 48 h; CNS Cancer U251
Protocol: as §1, §2

HL-60 (TB) = settings: 48 h; Leukemia HL-60 (TB)
XF498 = settings: 48 h; CNS Cancer XF498
Protocol: as §1, §2

DMS-114 = settings: 48 h; Small Cell Lung Cancer DMS-114
Protocol: as §1, §2

SF-268 = settings: 48 h; CNS Cancer SF-268
Protocol: as §1, §2

HT29 = settings: 48 h; Colon Cancer HT29
Protocol: as §1, §2

EKVX = settings: 48 h; Non-Small Cell Lung Cancer EKVX
Protocol: as §1, §2

DLD-1 = settings: 48 h; Colon Cancer DLD-1
Protocol: as §1, §2

| Compound | IC50 (A549/ATCC) [µM] | IC50 (SF-295) [µM] | IC50 (COLO-205) [µM] | IC50 (DMS-273) [µM] | IC50 (KM20L2) [µM] | IC50 (NCI-H522) [µM] | IC50 (HCC-2998) [µM] | IC50 (NCI-H460) [µM] | IC50 (HCT-116) [µM] | IC50 (NCI-H23) [µM] | IC50 (K-562) [µM] | IC50 (NCI-H322M) [µM] | IC50 (HCT-15) [µM] | IC50 (SF-539) [µM] | IC50 (HOP-62) [µM] | IC50 (Molt-4) [µM] | IC50 (KM12) [µM] | IC50 (MALME-3M) [µM] | IC50 (SW-620) [µM] | IC50 (NCI-H226) [µM] | other results |
| --- | --- | --- | --- | --- | --- | --- | --- | --- | --- | --- | --- | --- | --- | --- | --- | --- | --- | --- | --- | --- | --- |
| CN(C)CCNC(=O)c1nc(NC(=O)c2nc(NC(=O)CCCc3ccc(N(CCCl)CCCl)cc3)cn2C)cn1C [Compound 9, N-(N',N'-dimethylaminoethyl)-1-methyl-4-{4-[4,4-bis(2-chloroethyl)aminophenyl-1-butanamido]-1-methylimidazole-2-carboxamido}imidazole-2-carboxamide] | 78.5 | 51.9 | 81.6 | 42.7 | 53.4 | 86.6 | 55.1 | 43.5 | 50.2 | 67.3 | 54.2 | 77.6 | 61.3 | 47.9 | 75.5 | 71.3 | 60.9 | 56.3 | 77.3 | 47.9 | IC50 (U251): 46.2 µM; IC50 (HL-60 (TB)): 43.8 µM |
| CN(C)CCNC(=O)c1nc(NC(=O)c2nc(NC(=O)c3nc(NC(=O)CCCc4ccc(N(CCCl)CCCl)cc4)cn3C)cn2C)cn1C [Compound 10, N-(N',N'-dimethylaminoethyl)-1-methyl-4-{1-methyl-4-[4-(4,4-bis(2-chloroethyl)aminophenyl-1-butanamido)-1-methylimidazole-2-carboxamido]imidazole-2-carboxamido}imidazole-2-carboxamide] | 10.7 | 9.74 | 11.4 | 6.78 | 8.63 | 6.77 | 38.5 | 6.13 | 5.76 | 34.8 | 7.05 | 23.9 | 45.3 | 6.13 | 44 | 3.19 | 24.1 | 52.7 | 9.3 | 67.5 | IC50 (XF498): 5.79 µM; IC50 (DMS-114): 7.49 µM; IC50 (SF-268): 31.3 µM; IC50 (HT29): 51 µM; IC50 (EKVX): 87.8 µM; IC50 (DLD-1): 42.2 µM; IC50 (U251): 5.27 µM; IC50 (HL-60 (TB)): 7.89 µM |
